{"source": "patent US20030190322A1", "about": "“Immunostimulating properties of a fragment of tgf-beta” (priority 2000, published 2003)", "key": {"parvovirus peptide [1]": {"system": "parvovirus peptide", "test": "ELISA antibody titre to parvovirus peptide in rabbits immunised with Parv or Parv+TGF-29 (Example 1)", "assay_type": "in vivo", "conditions": "subcutaneous, 3 immunisations at 2 week intervals, freunds incomplete adjuvant", "protocol": "Both preparations were subcutaneously injected into 2 groups of rabbits. The con-tent of each injected dose of 0.2 mL were;\n50 microgram parvovirus peptide was dissolved in 0.05 mL PBS and subsequently mixed with 0.05 mL PBS by stirring. The combined fractions were then mixed with 0.1 mL freunds incomplete adjuvant by stirring.\n50 microgram parvovirus peptide was dissolved in 0.05 mL PBS and subsequently mixed with 100 microgram of a crude fraction comprising TGF-29 dissolved in 0.05 mL PBS, and then the combined fractions were mixed with 0.1 mL freunds incomplete adjuvant by stirring,\nThe rabbits were immunised by subcuteous injection according to normal standard immunisation procedures for antibody production in rabbits at a legal laboratory animal facility.\nBefore immunisation, a pre-immunisation serum sample (T0) of each rabbit were collected. Two weeks after the last of 3 immunisations (given at 2 week intervals) an immune serum sample (T1) was collected from each rabbit. […]\n(§1) The serum samples were analysed on an ELISA plate according to standard laboratory operations. Coating the plate bottom with parvo virus peptide derivative overnight, washings, incubation with serial dilutions of all serum samples, washings, incubation with HRP-Goat anti Rabbit 1 g, washings, incubation with substrate, stop reaction with acid, and reading of the plate."}, "parvovirus peptide [2]": {"system": "parvovirus peptide", "test": "ELISA antibody titre to parvovirus peptide in rabbits, TGF-29 dose experiment with Titermax adjuvant (Example 3)", "assay_type": "in vivo", "conditions": "group with highest dose TGF-29 (20 ug) plus 100 μg parvovirus peptide and Titermax adjuvant (preparation Iris); one rabbit, bleeding T3, 6 weeks after first immunisation", "protocol": "Both preparations were subcutaneously injected into 2 groups of rabbits. Each injected dose was 0.1 mL and the preparations for a resulting volume between 0.4 and 0.5 mL was made as follows:\nEach injected dose of 0.1 mL therefore contains approximate 4 ug TGF-29 and 100 ug parvovirus peptide.\nInto the same vial 154 microliter H2O was added and the combined fractions subsequently mixed by stirring a few seconds and then transferred in drops, while stirring, into a small 1.8 mL plast vial preloaded with 250 microliter Titermax adjuvant. The resulting volume of the water-in-oil emulsion volume was a little more than 0.4 mL. Each injected dose of 0.1 mL therefore contains approximate 20 μg TGF-29 and 100 μg parvovirus peptide.\nThe rabbits were then immunised according to the normal standard immunisation procedure for antibody production in rabbits at a legal laboratory animal facility.\nBefore immunisation, a pre-immunisation serum sample (To) of each rabbit was collected. […]\nas §1, with “operations:” for “operations.”"}}, "note": "No end group written: not given here.", "data": [{"substance": "acetyl-CDGAVQPDGGQPAVRNER-amide (Ac-CDGAVQPDGGQPAVRNER-NH2) [Parv]", "values": [{"measurement": "antibody titre to the parvovirus peptide, immune serum samples compared with T0 sera", "setting": "parvovirus peptide [1]", "result": "Non-detectable or less antibody titre to the parvovirus peptide than in the corresponding to sera"}]}, {"substance": "ALDAAYCFRNVQDNCCLRPLYIDFKRDLG (cysteine pairing not given here) [TGF-29]", "values": [{"measurement": "titer to the parvovirus peptide compared with T0 serum (highest of all bleedings)", "setting": "parvovirus peptide [2]", "result": "more than three 5-fold serial antiserum dilutions better than the corresponding T0 serum"}]}]}
